Consider 1 compound from article PMC10600239, “Selective MCL-1 inhibitor ABBV-467 is efficacious in tumor models but is associated with cardiac troponin increases in patients” (Communications Medicine, 2023).

One data set concerns SU-DHL-1 cells. The data set can be described thus: Cell viability of BAK-deficient and parental SU-DHL-1 cells (CellTiter-Glo). It counts as cell-based. The following applies: SU-DHL-1, 24 hr. On the procedure:
Supplementary Fig . S4: BAK is required for ABBV-467 ac tiv ity in S U-DHL-1 cells. BAK-deficient SU- D HL -1
cells were treated with ABBV-4 67 fo r 24 hr at the indicated concentrations and the impact on cell
viability compared to the parental cell line determined by CellTiter- G lo . N=3 .
(1 picture or pasted object on this page, not shown here)
In general terms: Cellular ATP, detected with luciferase, serves as a proxy for viable cell number.

Data set [1] addresses off-target receptors, ion channels, and transporters (Homo sapiens, UniProt P37231). In words: Off-target profiling (Supplementary Data 1). Particulars: Bioprofiling 6pt Ag.
The target of data set [2] is off-target receptors, ion channels, and transporters (Homo sapiens, UniProt P43403). In words: Off-target profiling (Supplementary Data 1). Particulars: TR-FRET Kinome; SignalChem A-1167389.7 .015(Subs Conc).
In data set [3] the target is off-target receptors, ion channels, and transporters (Homo sapiens, UniProt Q8IU85). In words: Off-target profiling (Supplementary Data 1). The following applies: TR-FRET Kinome; Invitrogen A-1167389.7 .025(Subs Conc). Background: In TR-FRET formats the signal depends on donor and acceptor labels being close together.
Chain of off-target receptors, ion channels, and transporters (Homo sapiens, UniProt Q8IU85) (Q8IU85 whole entry): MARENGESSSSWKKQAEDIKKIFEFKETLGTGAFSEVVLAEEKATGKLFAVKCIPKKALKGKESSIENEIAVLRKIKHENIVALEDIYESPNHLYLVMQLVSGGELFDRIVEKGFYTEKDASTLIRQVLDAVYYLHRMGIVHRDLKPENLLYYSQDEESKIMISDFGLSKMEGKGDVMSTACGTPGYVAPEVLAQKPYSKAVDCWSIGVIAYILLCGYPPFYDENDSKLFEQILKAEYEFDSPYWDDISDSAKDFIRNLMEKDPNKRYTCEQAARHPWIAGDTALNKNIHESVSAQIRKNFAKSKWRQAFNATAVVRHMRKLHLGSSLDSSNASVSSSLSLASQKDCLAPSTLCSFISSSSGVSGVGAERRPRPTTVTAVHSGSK
The target in data set [4] is off-target receptors, ion channels, and transporters (Homo sapiens, UniProt P35348). In words: Off-target profiling (Supplementary Data 1).
Chain of off-target receptors, ion channels, and transporters (Homo sapiens, UniProt P35348) (P35348 whole entry): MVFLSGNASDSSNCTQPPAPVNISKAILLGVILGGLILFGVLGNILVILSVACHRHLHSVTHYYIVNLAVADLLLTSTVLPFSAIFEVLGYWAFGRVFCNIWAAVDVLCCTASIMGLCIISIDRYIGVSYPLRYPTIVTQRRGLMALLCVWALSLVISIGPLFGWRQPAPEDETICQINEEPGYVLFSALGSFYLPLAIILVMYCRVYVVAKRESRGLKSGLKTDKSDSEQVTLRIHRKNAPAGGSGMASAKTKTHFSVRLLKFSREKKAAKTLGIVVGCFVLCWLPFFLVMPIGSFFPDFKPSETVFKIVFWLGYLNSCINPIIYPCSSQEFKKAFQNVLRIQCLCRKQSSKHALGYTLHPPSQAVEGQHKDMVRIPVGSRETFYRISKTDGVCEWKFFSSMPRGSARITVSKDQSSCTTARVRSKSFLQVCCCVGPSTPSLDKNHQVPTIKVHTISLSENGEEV
Data set [5] addresses off-target receptors, ion channels, and transporters (Homo sapiens, UniProt Q92918). The data set can be described thus: Off-target profiling (Supplementary Data 1). The following applies: TR-FRET Kinome; SignalChem A-1169612.6 .025(Subs Conc).
Data set [6] deals with off-target receptors, ion channels, and transporters (Homo sapiens, UniProt P50750). In words: Off-target profiling (Supplementary Data 1). The following applies: TR-FRET Kinome; Invitrogen A-1180691.2 .01(Subs Conc).
In data set [7] the target is off-target receptors, ion channels, and transporters (Homo sapiens, UniProt P15056). In words: Off-target profiling (Supplementary Data 1). The following applies: TR-FRET Kinome; Invitrogen A-1196442.2 .05(Subs Conc).
Chain of off-target receptors, ion channels, and transporters (Homo sapiens, UniProt P15056) (P15056 whole entry): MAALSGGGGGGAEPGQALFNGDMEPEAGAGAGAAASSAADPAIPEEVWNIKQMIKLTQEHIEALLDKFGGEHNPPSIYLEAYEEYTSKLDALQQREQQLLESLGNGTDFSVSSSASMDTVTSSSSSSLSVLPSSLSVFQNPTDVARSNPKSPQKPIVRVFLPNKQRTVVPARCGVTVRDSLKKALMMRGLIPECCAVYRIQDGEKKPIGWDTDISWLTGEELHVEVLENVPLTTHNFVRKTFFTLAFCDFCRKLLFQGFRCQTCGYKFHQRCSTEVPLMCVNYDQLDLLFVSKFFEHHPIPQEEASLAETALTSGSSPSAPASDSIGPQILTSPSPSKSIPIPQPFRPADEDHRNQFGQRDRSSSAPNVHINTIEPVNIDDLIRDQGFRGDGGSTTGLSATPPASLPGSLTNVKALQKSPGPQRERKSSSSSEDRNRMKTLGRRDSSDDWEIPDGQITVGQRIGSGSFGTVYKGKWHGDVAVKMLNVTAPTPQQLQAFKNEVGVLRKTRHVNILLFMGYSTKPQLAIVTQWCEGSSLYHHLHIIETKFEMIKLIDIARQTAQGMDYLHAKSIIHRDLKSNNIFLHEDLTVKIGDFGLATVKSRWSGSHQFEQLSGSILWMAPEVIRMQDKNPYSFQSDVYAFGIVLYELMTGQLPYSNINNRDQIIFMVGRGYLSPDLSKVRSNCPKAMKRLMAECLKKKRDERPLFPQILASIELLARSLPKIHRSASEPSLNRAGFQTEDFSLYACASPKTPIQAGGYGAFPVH
Data set [8] concerns the target off-target receptors, ion channels, and transporters (Homo sapiens, UniProt O00141). The data set can be described thus: Off-target profiling (Supplementary Data 1). The following applies: TR-FRET Kinome; Millipore A-1213250.2 .03(Subs Conc).
Data set [9] concerns the target off-target receptors, ion channels, and transporters (Homo sapiens, UniProt Q9UM73). The data set can be described thus: Off-target profiling (Supplementary Data 1). Particulars: TR-FRET Kinome; Millipore A-1167389.7 .05(Subs Conc).
The target of data set [10] is off-target receptors, ion channels, and transporters (Homo sapiens, UniProt P08913). In words: Off-target profiling (Supplementary Data 1).
Chain of off-target receptors, ion channels, and transporters (Homo sapiens, UniProt P08913) (P08913 whole entry): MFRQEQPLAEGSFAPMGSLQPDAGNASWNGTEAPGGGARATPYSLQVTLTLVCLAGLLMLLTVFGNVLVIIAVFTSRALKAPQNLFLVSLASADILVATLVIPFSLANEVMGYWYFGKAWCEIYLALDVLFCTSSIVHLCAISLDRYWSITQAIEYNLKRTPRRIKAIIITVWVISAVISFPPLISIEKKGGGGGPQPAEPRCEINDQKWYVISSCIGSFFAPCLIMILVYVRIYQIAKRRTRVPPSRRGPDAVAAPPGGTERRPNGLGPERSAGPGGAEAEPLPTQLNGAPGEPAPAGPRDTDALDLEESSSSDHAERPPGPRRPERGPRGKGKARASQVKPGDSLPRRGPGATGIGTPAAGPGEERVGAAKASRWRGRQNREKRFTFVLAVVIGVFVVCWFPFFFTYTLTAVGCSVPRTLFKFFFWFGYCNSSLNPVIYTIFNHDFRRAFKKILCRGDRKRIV
Data set [11] can be described thus: Conscious telemetry-instrumented dog cardiovascular safety pharmacology. In kind it is in vivo. The following applies: conscious beagle, IV, at 3-mg/kg dose. The source says: ABBV-467 was profiled in safety pharmacology studies in anesthetized (non-Good Laboratory Practice [GLP]) and telemetry-instrumented conscious (GLP) dog cardiovascular assays (Supplementary Table S6).
Supplementary Table S6: Maj or findings in safety pharmac ology cardiovascular studies c onduc ted with ABBV- […]
Species/Strain Route of Concentrations Sex and N Results
Administration or Doses per Group […]
Anesthetized IV 1, 3, and Male No effects up to a plasma concentration dog 10 m g/ k gN=4 o f 16 .83 µg/mL on […]
aged 8-12 months • Heart rate
• Systemic vascular resistance
At 67 .23 mg/m L, an increase in heart rate and decrease in systemic vascular
Conscious IV 0, 0.3, 1, and Male No effects on blood pressure, heart dog 3 mg/kg N=5–6a rate, or ECG parameters at any dose beagle (plasma concentration of 6.53 µg/mL at (aged 8-12 months 3-m g/ k g do s e )
ECG, electrocardiogram; IC50, half maximal inhibitory concentration; IV, intravenous; QTcV, QT interval correct ed accor ding to the Van de Water formula. No animals or data were excl uded from analysis . […] Healthy dogs, as determined by veterinary physical examination and clinical pathology, were selected for study based on availability without explicit randomization. […] Power analysis has shown a group size of 6 can statistically detect an approximately 20 % alteration in measured parameters w ith α =0.0 5. […]

Chain of off-target receptors, ion channels, and transporters (Homo sapiens, UniProt P37231) (P37231 whole entry): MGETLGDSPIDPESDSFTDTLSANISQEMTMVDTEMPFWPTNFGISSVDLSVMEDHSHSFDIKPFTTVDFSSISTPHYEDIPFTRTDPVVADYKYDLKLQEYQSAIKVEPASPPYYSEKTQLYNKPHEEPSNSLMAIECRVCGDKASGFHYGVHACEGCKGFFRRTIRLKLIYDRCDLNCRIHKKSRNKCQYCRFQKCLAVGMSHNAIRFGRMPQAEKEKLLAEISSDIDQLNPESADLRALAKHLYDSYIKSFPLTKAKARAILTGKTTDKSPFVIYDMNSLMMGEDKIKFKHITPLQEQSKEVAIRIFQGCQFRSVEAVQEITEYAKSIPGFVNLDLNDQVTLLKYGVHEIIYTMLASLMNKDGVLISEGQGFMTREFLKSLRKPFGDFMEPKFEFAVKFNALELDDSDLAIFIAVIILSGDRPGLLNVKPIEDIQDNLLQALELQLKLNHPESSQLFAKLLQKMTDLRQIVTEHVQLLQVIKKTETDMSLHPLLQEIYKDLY
Chain of off-target receptors, ion channels, and transporters (Homo sapiens, UniProt Q92918) (Q92918 whole entry): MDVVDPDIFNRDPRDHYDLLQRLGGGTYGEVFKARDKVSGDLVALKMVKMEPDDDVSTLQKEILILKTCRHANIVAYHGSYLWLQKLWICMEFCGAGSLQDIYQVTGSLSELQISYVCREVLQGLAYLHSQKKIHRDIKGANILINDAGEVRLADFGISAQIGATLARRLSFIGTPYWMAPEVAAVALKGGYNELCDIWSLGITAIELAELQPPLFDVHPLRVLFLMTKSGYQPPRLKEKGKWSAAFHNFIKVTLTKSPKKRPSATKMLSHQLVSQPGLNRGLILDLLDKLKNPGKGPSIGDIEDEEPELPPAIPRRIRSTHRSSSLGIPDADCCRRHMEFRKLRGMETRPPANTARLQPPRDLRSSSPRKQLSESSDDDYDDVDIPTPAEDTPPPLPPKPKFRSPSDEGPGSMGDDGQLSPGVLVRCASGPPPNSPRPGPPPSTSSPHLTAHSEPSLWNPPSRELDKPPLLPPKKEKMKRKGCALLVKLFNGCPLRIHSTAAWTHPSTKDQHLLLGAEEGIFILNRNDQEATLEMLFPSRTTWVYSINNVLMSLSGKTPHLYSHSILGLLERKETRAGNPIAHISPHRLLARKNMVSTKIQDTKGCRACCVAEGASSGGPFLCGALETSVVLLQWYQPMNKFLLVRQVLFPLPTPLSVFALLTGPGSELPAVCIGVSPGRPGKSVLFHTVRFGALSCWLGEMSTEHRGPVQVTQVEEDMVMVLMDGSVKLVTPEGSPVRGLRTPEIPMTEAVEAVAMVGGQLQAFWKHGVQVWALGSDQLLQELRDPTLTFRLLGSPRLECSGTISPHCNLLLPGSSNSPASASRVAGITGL
Chain of off-target receptors, ion channels, and transporters (Homo sapiens, UniProt Q9UM73) (Q9UM73 19-1620): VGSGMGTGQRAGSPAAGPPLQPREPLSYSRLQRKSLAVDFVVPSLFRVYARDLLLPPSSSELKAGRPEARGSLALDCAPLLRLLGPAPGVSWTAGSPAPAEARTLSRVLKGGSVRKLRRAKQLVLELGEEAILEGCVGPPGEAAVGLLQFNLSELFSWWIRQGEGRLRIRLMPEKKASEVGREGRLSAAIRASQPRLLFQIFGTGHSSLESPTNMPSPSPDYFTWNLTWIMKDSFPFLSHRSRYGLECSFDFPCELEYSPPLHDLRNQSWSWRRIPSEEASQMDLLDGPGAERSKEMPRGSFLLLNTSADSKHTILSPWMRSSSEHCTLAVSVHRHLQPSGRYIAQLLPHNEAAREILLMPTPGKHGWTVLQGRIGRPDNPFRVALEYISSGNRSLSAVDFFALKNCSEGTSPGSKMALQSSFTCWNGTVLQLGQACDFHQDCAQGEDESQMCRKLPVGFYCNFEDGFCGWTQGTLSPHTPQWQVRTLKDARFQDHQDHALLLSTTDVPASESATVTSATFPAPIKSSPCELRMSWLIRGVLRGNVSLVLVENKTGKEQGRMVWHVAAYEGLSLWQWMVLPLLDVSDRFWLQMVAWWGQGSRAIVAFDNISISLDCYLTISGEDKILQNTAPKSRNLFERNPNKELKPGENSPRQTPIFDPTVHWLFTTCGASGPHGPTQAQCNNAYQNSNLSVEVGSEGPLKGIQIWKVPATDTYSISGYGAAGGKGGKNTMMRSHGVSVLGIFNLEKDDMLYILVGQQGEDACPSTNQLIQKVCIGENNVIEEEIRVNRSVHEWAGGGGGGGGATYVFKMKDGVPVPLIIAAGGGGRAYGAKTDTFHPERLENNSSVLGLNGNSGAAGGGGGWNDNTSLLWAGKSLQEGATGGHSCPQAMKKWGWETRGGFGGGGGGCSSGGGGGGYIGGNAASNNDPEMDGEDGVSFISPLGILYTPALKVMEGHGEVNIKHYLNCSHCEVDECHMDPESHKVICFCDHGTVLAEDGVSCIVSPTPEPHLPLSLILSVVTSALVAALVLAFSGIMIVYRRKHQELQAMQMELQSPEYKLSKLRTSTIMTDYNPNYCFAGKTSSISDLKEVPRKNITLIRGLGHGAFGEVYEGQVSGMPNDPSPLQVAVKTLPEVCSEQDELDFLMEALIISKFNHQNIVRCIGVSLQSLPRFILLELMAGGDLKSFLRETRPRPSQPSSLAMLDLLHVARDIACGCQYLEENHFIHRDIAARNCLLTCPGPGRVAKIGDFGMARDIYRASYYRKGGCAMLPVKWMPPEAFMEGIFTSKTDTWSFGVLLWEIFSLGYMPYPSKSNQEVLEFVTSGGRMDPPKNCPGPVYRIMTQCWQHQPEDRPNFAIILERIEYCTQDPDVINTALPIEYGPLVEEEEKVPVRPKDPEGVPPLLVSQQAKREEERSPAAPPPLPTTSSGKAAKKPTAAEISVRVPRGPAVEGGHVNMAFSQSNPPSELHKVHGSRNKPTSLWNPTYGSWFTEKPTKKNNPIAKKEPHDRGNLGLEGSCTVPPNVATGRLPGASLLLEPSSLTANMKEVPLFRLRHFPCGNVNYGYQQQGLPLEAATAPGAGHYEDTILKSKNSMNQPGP

In the case of `Cc1c(Cl)c2c(Cl)c(C)c1-c1c(-c3ccc(F)cc3)sc3ncnc(c13)O[C@@H](C(=O)O)Cc1cc(ccc1OCc1ccnc(-c3ccc(OC[C@H]4COCCO4)cc3)n1)OC[C@@H](CN1CCN(C)CC1)O2` [ABBV-467], the “effect of BAK deletion on activity” value with SU-DHL-1 cells is “completely inhibited”. This compound also showed a PPARgamma Human - EC50 in [1] of more than 10 µM. Moreover, the Zap70 - IC50 in [2] is more than 10 µM. This compound also displayed a CAMK1D - IC50 in data set [3] of more than 10 µM. Besides, the EC50 is more than 10 µM in data set [4] (read-out: Alpha1A CHO Human - EC50, Bioprofiling 6pt Ag) and more than 10 µM in [10] (read-out: Alpha2A CHO Human - EC50, Bioprofiling 6pt Ag). Moreover, the IC50 in [4] (read-out: Alpha1A CHO Human - IC50, Bioprofiling 6pt Antag, A-61603) was more than 10 µM; in data set [10] (read-out: Alpha2A CHO Human - IC50, Bioprofiling 6pt Antag, UK-14304), more than 10 µM. Besides, the MAP4K1 - IC50 in data set [5] was more than 10 µM. The same compound registered a CDK9/Cyclin K - IC50 in data set [6] of 4.24 µM. For the same compound, the BRAF - IC50 in [7] was more than 10 µM. The SGK1 - IC50 in [8] is more than 10 µM. This compound had an ALK - IC50 in data set [9] of more than 10 µM. The “plasma concentration with no effects on blood pressure, heart rate, or ECG parameters” value in [11] is 6530 ng/mL.

The term EC50 denotes the concentration at which the effect is half-maximal. Usually IC50 stands for the concentration at which inhibition is half-maximal.
